The assay deals with T1, mushroom tyrosinase.
T1 construct: gene PPO3; commercial native preparation from Merck; likely isoenzyme mixture
The assay can be described thus: absorbance at […] nm, Lineweaver–Burk plot. The assay is classed as biochemical. The following applies: no inhibitor, 0.2 M sodium phosphate pH 6.8, 25 °C.

Take `N[C@@H](Cc1ccc(O)cc1)C(=O)O` [L-tyrosine]: where the note is “monophenolase activity”, the Km stood at 0.534 mg/mL.
For `N[C@@H](Cc1ccc(O)c(O)c1)C(=O)O` [L-DOPA, L-3,4-dihydroxyphenylalanine], the Km (diphenolase activity) is on record as 0.511 mg/mL.

The record behind these values is PMC6826928, “A New Natural Antioxidant Biomaterial from Cinnamomum osmophloeum Kanehira Leaves Represses Melanogenesis and Protects against DNA Damage” (Antioxidants, 2019).
